Patent publication US7612064B2, “Sulfopyrroles” (Takeda Pharmaceutical Company Limited, priority 2003, dated 2009)

Assays:
Jurkat = assay: MTS proliferation assay; format: cell-based, human; details: 72 h
Outline: (§1)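 Cells were exposed for 72 h under culture conditions to test compounds at final concentrations of 10, 3, 1 and 0.3 μM, added in complete medium with at most 5% DMSO. MTS reagent was then added for a further 3 h, and absorbance was read at 492 nm.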

HeLa = assay: MTS proliferation assay; format: cell-based, human; details: 72 h
Outline: as §1

MRC5 = assay: MTS proliferation assay; format: cell-based; details: MRC5, 72 h
Outline: as §1

Jily = assay: MTS proliferation assay; format: cell-based; details: 72 h
Outline: as §1

[1] = Hoechst 33342 nuclear staining; format: cell-based; details: for Hoechst 33342 nuclear staining score, H460: H460 cells; for Hoechst 33342 nuclear staining score, HeLa: HeLa cells; for Hoechst 33342 nuclear staining score, Jily: Jily cells; for Hoechst 33342 nuclear staining score, Jurkat: Jurkat cells; for Hoechst 33342 nuclear staining score, MRC5: MRC5 cells; on Hoechst 33342 nuclear staining score, PBLs: key: 0: no activity; 1: weak activity comprising less than 50% of the cells; 2: strong activity comprising more than 50% of the cells;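 on all read-outs here: apoptotic nuclei scored 0 none 1 weak under 50% of cells 2 strong over 50% of cells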
Outline: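 Cells were plated in 96 well tissue culture plates in 80 μl complete medium, with 3-5*10^3 cells per well for adherent lines and 8-10*10^3 for suspension lines. Adherent cells spread for 24 h before treatment, while suspension cells were treated right after seeding. Compounds were added in 20 μl complete medium containing max 5% DMSO.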

Compound | IC50 (Jily) | Hoechst 33342 nuclear staining score, H460 ([1]; conc 0.1) | Hoechst 33342 nuclear staining score, H460 ([1]; conc 0.3) | Hoechst 33342 nuclear staining score, H460 ([1]; conc 1) | Hoechst 33342 nuclear staining score, H460 ([1]; conc 3) | Hoechst 33342 nuclear staining score, HeLa ([1]; conc 0.1) | Hoechst 33342 nuclear staining score, HeLa ([1]; conc 0.3) | Hoechst 33342 nuclear staining score, HeLa ([1]; conc 1) | Hoechst 33342 nuclear staining score, HeLa ([1]; conc 3) | Hoechst 33342 nuclear staining score, Jily ([1]; conc 0.1) | Hoechst 33342 nuclear staining score, Jily ([1]; conc 0.3) | Hoechst 33342 nuclear staining score, Jily ([1]; conc 1) | Hoechst 33342 nuclear staining score, Jily ([1]; conc 3) | Hoechst 33342 nuclear staining score, Jurkat ([1]; conc 0.1) | Hoechst 33342 nuclear staining score, Jurkat ([1]; conc 0.3) | Hoechst 33342 nuclear staining score, Jurkat ([1]; conc 1) | Hoechst 33342 nuclear staining score, Jurkat ([1]; conc 3) | Hoechst 33342 nuclear staining score, MRC5 ([1]; conc 0.1) | Hoechst 33342 nuclear staining score, MRC5 ([1]; conc 0.3) | Hoechst 33342 nuclear staining score, MRC5 ([1]; conc 1) | also measured
COc1cc(-c2cc(-c3cccnc3)cn2S(=O)(=O)c2ccc(C(F)(F)F)cc2)cc(OC)c1OC [Example 82] | > 1000 nM | 0 | 0 | 2 (strong activity comprising more than 50% of the cells) | 2 (strong activity comprising more than 50% of the cells) | 0 | 0 | 2 (strong activity comprising more than 50% of the cells) | 2 (strong activity comprising more than 50% of the cells) | 0 | 0 | 1 (weak activity comprising less than 50% of the cells) | 2 (strong activity comprising more than 50% of the cells) | 0 | 0 | 2 (strong activity comprising more than 50% of the cells) | 2 (strong activity comprising more than 50% of the cells) | 0 | 0 | 1 (weak activity comprising less than 50% of the cells) | IC50 (Jurkat): < 1000 nM; IC50 (HeLa): > 1000 nM; IC50 (MRC5): > 1000 nM; Hoechst 33342 nuclear staining score, MRC5 ([1]; conc 3): 1 (weak activity comprising less than 50% of the cells); Hoechst 33342 nuclear staining score, PBLs ([1]; conc 0.1): 0; Hoechst 33342 nuclear staining score, PBLs ([1]; conc 0.3): 0; Hoechst 33342 nuclear staining score, PBLs ([1]; conc 1): 0; Hoechst 33342 nuclear staining score, PBLs ([1]; conc 3): 0
COc1ccc(S(=O)(=O)n2cc(-c3cncc(C(N)=O)c3)cc2-c2cc(OC)c(OC)c(OC)c2)cc1 [Example 104, 4-(3-Aminocarbonylpyrid-5-yl)-1-p-methoxyphenylsulfonyl-2-(3,4,5-trimethoxyphenyl)-pyrrole] | < 200 nM | 0 | 2 (strong activity comprising more than 50% of the cells) | 2 (strong activity comprising more than 50% of the cells) | 2 (strong activity comprising more than 50% of the cells) | 0 | 2 (strong activity comprising more than 50% of the cells) | 2 (strong activity comprising more than 50% of the cells) | 2 (strong activity comprising more than 50% of the cells) | 0 | 2 (strong activity comprising more than 50% of the cells) | 2 (strong activity comprising more than 50% of the cells) | 2 (strong activity comprising more than 50% of the cells) | 0 | 2 (strong activity comprising more than 50% of the cells) | 2 (strong activity comprising more than 50% of the cells) | 2 (strong activity comprising more than 50% of the cells) | 0 | 1 (weak activity comprising less than 50% of the cells) | 2 (strong activity comprising more than 50% of the cells) | IC50 (Jurkat; Homo sapiens): < 200 nM; IC50 (HeLa; Homo sapiens): < 1000 nM; IC50 (MRC5; Homo sapiens): < 200 nM; Hoechst 33342 nuclear staining score, MRC5 ([1]; conc 3): 2 (strong activity comprising more than 50% of the cells); Hoechst 33342 nuclear staining score, PBLs ([1]; conc 0.1): 0; Hoechst 33342 nuclear staining score, PBLs ([1]; conc 0.3): 0; Hoechst 33342 nuclear staining score, PBLs ([1]; conc 1): 0; Hoechst 33342 nuclear staining score, PBLs ([1]; conc 3): 0
COc1ccc(S(=O)(=O)n2cc(-c3cncc(C(N)=O)c3)cc2-c2ccccc2OC)cc1 [Example 107] | < 1000 nM | 0 | 0 | 1 (weak activity comprising less than 50% of the cells) | 2 (strong activity comprising more than 50% of the cells) | 0 | 0 | 0 | 2 (strong activity comprising more than 50% of the cells) | 0 | 0 | 2 (strong activity comprising more than 50% of the cells) | 2 (strong activity comprising more than 50% of the cells) | 0 | 0 | 2 (strong activity comprising more than 50% of the cells) | 2 (strong activity comprising more than 50% of the cells) | 0 | 0 | 0 | IC50 (Jurkat): < 1000 nM; IC50 (HeLa): > 1000 nM; IC50 (MRC5): > 1000 nM; Hoechst 33342 nuclear staining score, MRC5 ([1]; conc 3): 0; Hoechst 33342 nuclear staining score, PBLs ([1]; conc 0.1): 0; Hoechst 33342 nuclear staining score, PBLs ([1]; conc 0.3): 0; Hoechst 33342 nuclear staining score, PBLs ([1]; conc 1): 0; Hoechst 33342 nuclear staining score, PBLs ([1]; conc 3): 0
COc1cc(-c2cc(-c3cccnc3)cn2S(=O)(=O)c2ccccc2Cl)cc(OC)c1OC [Example 84] | > 1000 nM | 0 | 0 | 0 | 0 | 0 | 0 | 0 | 0 | 0 | 0 | 0 | 0 | 0 | 0 | 0 | 0 | 0 | 0 | 0 | IC50 (Jurkat): > 1000 nM; IC50 (HeLa): > 1000 nM; IC50 (MRC5): > 1000 nM; Hoechst 33342 nuclear staining score, MRC5 ([1]; conc 3): 0; Hoechst 33342 nuclear staining score, PBLs ([1]; conc 0.1): 0; Hoechst 33342 nuclear staining score, PBLs ([1]; conc 0.3): 0; Hoechst 33342 nuclear staining score, PBLs ([1]; conc 1): 0; Hoechst 33342 nuclear staining score, PBLs ([1]; conc 3): 0
COc1cc(-c2cc(-c3cccnc3)cn2S(=O)(=O)c2ccc(Cl)cc2)cc(OC)c1OC [Example 81] | > 1000 nM | 0 | 0 | 0 | 2 (strong activity comprising more than 50% of the cells) | 0 | 0 | 0 | 1 (weak activity comprising less than 50% of the cells) | 0 | 0 | 0 | 1 (weak activity comprising less than 50% of the cells) | 0 | 0 | 0 | 2 (strong activity comprising more than 50% of the cells) | 0 | 0 | 0 | IC50 (Jurkat): > 1000 nM; IC50 (HeLa): > 1000 nM; IC50 (MRC5): > 1000 nM; Hoechst 33342 nuclear staining score, MRC5 ([1]; conc 3): 0; Hoechst 33342 nuclear staining score, PBLs ([1]; conc 0.1): 0; Hoechst 33342 nuclear staining score, PBLs ([1]; conc 0.3): 0; Hoechst 33342 nuclear staining score, PBLs ([1]; conc 1): 0; Hoechst 33342 nuclear staining score, PBLs ([1]; conc 3): 0
